Data reported in patent publication US20100233532A1, “Composition for battery” (TOYO INK MFG. CO., LTD., priority 2007, published 2010).

Assay: Solubility of dispersants in purified water
Format: physicochemical
Method: Evaluations of solubility were carried out by evaluating dispersants having solubility in purified water of 0.02% or more as “O” (soluble) and those having solubility of less than 0.02% as “x” (insoluble).
In the case of `CC1(C)CC(Nc2nc(Nc3ccc(P(=O)(O)O)cc3)nc(Nc3ccc4[nH]c(=O)[nH]c4c3)n2)CC(C)(CNc2nc(Nc3ccc(P(=O)(O)O)cc3)nc(Nc3ccc4[nH]c(=O)[nH]c4c3)n2)C1` (stereo not shown) [Dispersant G], the Solubility in water is reported as “Solubility in water: x (solubility of less than 0.02% as “x” (insoluble))”. In the case of `O=C(O)c1cc2ccccc2c(N=Nc2ccc([N+](=O)[O-])cc2)c1O` [Dispersant O], the Solubility in water is reported as “Salt forming substance: None Solubility in water: ∘”. In the case of `Cc1ccc(Nc2nc(Nc3ccccc3)nc(Nc3ccc4[nH]c(=O)[nH]c4c3)n2)cc1S(=O)(=O)O` [Dispersant A], the Solubility in water is reported as “Salt forming substance: None Solubility in water: ∘”. With `O=P(O)(O)c1ccc(Nc2nc(Nc3ccc4ccccc4c3)nc(Nc3ccc4ccccc4c3)n2)cc1` [Dispersant F] the Solubility in water was “Salt forming substance: None Solubility in water: ∘”. With `O=C1Cc2ccc(Nc3nc(Nc4ccc(C(=O)O)cc4)nc(Nc4ccc5[nH]c(=O)[nH]c5c4)n3)cc2C1` [Dispersant I] the Solubility in water was “Solubility in water: x (solubility of less than 0.02% as “x” (insoluble))”. With `Cc1ccc2cccc(Nc3nc(Nc4ccc(C(=O)O)cc4)nc(Nc4ccc(C(=O)O)cc4)n3)c2n1` [Dispersant J] the Solubility in water was “Solubility in water: x (solubility of less than 0.02% as “x” (insoluble))”. With `CCn1c2ccccc2c2cc(Nc3nc(O)nc(Nc4ccc(O)c(C(=O)O)c4)n3)ccc21` [Dispersant H] the Solubility in water was “Salt forming substance: None Solubility in water: ∘”.
